Reference: US9034793B2, “Use of ribose to enhance plant growth” (Bioenergy, Inc., priority 2002, dated 2015)
“And” between values parts separate entries of the source, which are not always exact repeats. Identical values can stand only once.

Legend:
bean seeds [1] = assay: Plant growth and yield from bean seeds, daylight or darkness (Example 2); format: in vivo
Experimental: Three different treatments were explored on bean seeds to determine the effects of ribose (at two different doses) on plant growth and proliferation. [The three treatments include control (plain water), a 0.1332 M solution of ribose (5 g D-ribose dissolved in 250 ml water), and a 0.0666 M solution of ribose (5 g D-ribose dissolved in 500 ml water)]. The plants were kept under two different conditions, normal daylight and darkness. A total of six plants will be tested, with the conditions that each plant were tested at listed below. Treatments: [table] Each seed was planted under identical conditions (soil and pot size) and all at the same time. The environmental conditions (such as temperature and humidity), except for lighting, were kept constant for all the plants. Once potted, each seed received one to two tablespoons of treatment liquid (as mentioned above). A daily record was kept of the activity of each plant. Watering was done on every other day (or sooner if the soil was deemed too dry by the researcher), each again receiving one tablespoon of treatment liquid. Assessment of the effects of ribose fertilization was determined by measuring the time to the first appearance of a plant from the soil, the rate of growth, and leaf size. Table 3 represents the accumulated plant growth data from Example 2 and FIGS. 3 and 4 are graphic presentations of plant growth during light and dark conditions.

bean seeds [2] = assay: Root growth assessment (Example 3); format: in vivo; settings: for Root appearance: 2 weeks, compared with water treated roots
From the text: Identical sized pots, containing the same consistency of soil media, were used in assessing root growth. Bean seeds of similar size were chosen. One seed was planted in each pot. The depth in the soil for each seed that was planted was the same. Paired pots (total of 3 pairs, 6 pots), each containing one bean seed, were used. One pair of pots received 2 teaspoons of water every other day (Group A). The second pair of pots received a low Ribose solution (1 teaspoon of D-ribose in 16 oz of water), each pot received 2 teaspoons of this low dose of Ribose every other day (Group B). The final pair of pots received a higher dose of Ribose (1 teaspoon of D-ribose in 4 oz of water), each pot received 2 teaspoons of this higher dose of Ribose every other day (Group C). In each pair of pots, roots were examined at week 1 and 2, by removing the roots of one pot only in each group at the designed test time point with soil emersion in a bucket of water. At week 2 all remaining pots had shoots emerging from the top soil. The roots were weighed and measured for length. […] This discrepancy expanded when the roots were analyzed at 2 weeks. […] The weight of the roots treated with high dose Ribose were appreciably less in weight than both the water and low dose Ribose treated groups.

[3] = tested on: plants grown from seed (5 seeds per plot); assay: Plant feeding with ribose for growth (Table 1); format: in vivo, Hosta (H. plantaginea grandiflora); settings: for Unsprouted: of 5 seeds per plot
From the text: (§1) Hosta (H. plantaginea grandiflora) plants were transplanted. The protocol was designed such that half of the plants were supplied with water alone and half of the plants received a ribose based solution, in which powdered D-ribose was mixed in water. All plants were transplanted at the same level in the soil and in like soil. All plants were watered at the same times of day, mid-morning and at dusk. Each plant received the same amount of water/watering (½ liter water at each watering). Results of plant growth data following transplantation are graphically depicted in FIGS. 1 and 2. [table]

beans (B) = assay: Transplants in garden, growth and hardening after transplantation: beans; format: in vivo, bean
From the text: as §1

kohlrabi (K) = assay: Transplants in garden, growth and hardening after transplantation: kohlrabi; format: in vivo; settings: 1-Nov, after transplant
From the text: as §1

[4] = Week 1 following seed implantation
[5] = Week 2, plants cut off above the soil, just the roots weighed

## O=C[C@H](O)[C@H](O)[C@H](O)CO [5/500, D-ribose]
Bean seeds [1]; Dark, Day 0 (17-Sep)
  Amount of Growth Between Measurements: 0
  Plant growth-height: 0
  Rate of Growth Between Measurements: 0
Bean seeds [1]; Dark, Day 3 (20-Sep)
  Amount of Growth Between Measurements: 0
  Plant growth-height: 0
  Rate of Growth Between Measurements: 0
Bean seeds [1]; Dark, Day 5 (22-Sep)
  Amount of Growth Between Measurements: 0
  Plant growth-height: 0
  Rate of Growth Between Measurements: 0
  Rate of Growth Overall Thru Date: 0
Bean seeds [1]; Dark, Day 7 (24-Sep)
  Amount of Growth Between Measurements: 5.2
  Plant growth-height: 5.2
  Rate of Growth Between Measurements: 2.60
  Rate of Growth Overall Thru Date: 0.74
Bean seeds [1]; Dark, Day 8 (25-Sep)
  Amount of Growth Between Measurements: 5.9
  Plant growth-height: 11.1
  Rate of Growth Between Measurements: 5.90
  Rate of Growth Overall Thru Date: 1.39
Bean seeds [1]; Dark, Day 9 (26-Sep)
  Amount of Growth Between Measurements: 9.7
  Plant growth-height: 20.8
  Rate of Growth Between Measurements: 9.70
  Rate of Growth Overall Thru Date: 2.31
Bean seeds [1]; Dark, Day 10 (27-Sep)
  Amount of Growth Between Measurements: 9.8
  Plant growth-height: 30.6
  Rate of Growth Between Measurements: 9.80
  Rate of Growth Overall Thru Date: 3.06
Bean seeds [1]; Dark, Day 11 (28-Sep)
  Amount of Growth Between Measurements: 5.2
  Plant growth-height: 35.8
  Rate of Growth Between Measurements: 5.20
  Rate of Growth Overall Thru Date: 3.25
Bean seeds [1]; Dark, Day 12 (29-Sep)
  Amount of Growth Between Measurements: 3.5
  Plant growth-height: 39.3
  Rate of Growth Between Measurements: 3.50
  Rate of Growth Overall Thru Date: 3.28
Bean seeds [1]; Dark, Day 13 (30-Sep)
  Amount of Growth Between Measurements: 5.5
  Plant growth-height: 44.8
  Rate of Growth Between Measurements: 5.50
  Rate of Growth Overall Thru Date: 3.45
Bean seeds [1]; Dark, Day 16 (3-Oct)
  Amount of Growth Between Measurements: 2
  Plant growth-height: 46.8
  Rate of Growth Between Measurements: 0.67
  Rate of Growth Overall Thru Date: 2.93
Bean seeds [1]; Dark, Day 19 (6-Oct)
  Amount of Growth Between Measurements: 0
  Plant growth-height: 46.8
  Rate of Growth Between Measurements: 0.00
  Rate of Growth Overall Thru Date: 2.46
Bean seeds [1]; Light, Day 0 (17-Sep)
  Amount of Growth Between Measurements: 0
  Plant growth-height: 0
  Rate of Growth Between Measurements: 0
Bean seeds [1]; Light, Day 3 (20-Sep)
  Amount of Growth Between Measurements: 0
  Plant growth-height: 0
  Rate of Growth Between Measurements: 0
Bean seeds [1]; Light, Day 5 (22-Sep)
  Amount of Growth Between Measurements: 0
  Plant growth-height: 0
  Rate of Growth Between Measurements: 0
  Rate of Growth Overall Thru Date: 0
Bean seeds [1]; Light, Day 7 (24-Sep)
  Amount of Growth Between Measurements: 0
  Plant growth-height: 0
  Rate of Growth Between Measurements: 0
  Rate of Growth Overall Thru Date: 0.00
Bean seeds [1]; Light, Day 8 (25-Sep)
  Amount of Growth Between Measurements: 0.5
  Plant growth-height: 0.5
  Rate of Growth Between Measurements: 0.50
  Rate of Growth Overall Thru Date: 0.06
Bean seeds [1]; Light, Day 9 (26-Sep)
  Amount of Growth Between Measurements: 1.6
  Plant growth-height: 2.1
  Rate of Growth Between Measurements: 1.60
  Rate of Growth Overall Thru Date: 0.23
Bean seeds [1]; Light, Day 10 (27-Sep)
  Amount of Growth Between Measurements: 8.4
  Plant growth-height: 10.5
  Rate of Growth Between Measurements: 8.40
  Rate of Growth Overall Thru Date: 1.05
Bean seeds [1]; Light, Day 11 (28-Sep)
  Amount of Growth Between Measurements: 6.1
  Plant growth-height: 16.6
  Rate of Growth Between Measurements: 6.10
  Rate of Growth Overall Thru Date: 1.51
Bean seeds [1]; Light, Day 12 (29-Sep)
  Amount of Growth Between Measurements: 5.9
  Plant growth-height: 22.5
  Rate of Growth Between Measurements: 5.90
  Rate of Growth Overall Thru Date: 1.88
Bean seeds [1]; Light, Day 13 (30-Sep)
  Amount of Growth Between Measurements: 3.8
  Plant growth-height: 26.3
  Rate of Growth Between Measurements: 3.80
  Rate of Growth Overall Thru Date: 2.02
Bean seeds [1]; Light, Day 16 (3-Oct)
  Amount of Growth Between Measurements: 2.1
  Plant growth-height: 28.4
  Rate of Growth Between Measurements: 0.70
  Rate of Growth Overall Thru Date: 1.78
Bean seeds [1]; Light, Day 19 (6-Oct)
  Amount of Growth Between Measurements: 0.6
  Plant growth-height: 29
  Rate of Growth Between Measurements: 0.20
  Rate of Growth Overall Thru Date: 1.53

## O=C[C@H](O)[C@H](O)[C@H](O)CO [High Ribose, D-ribose]
Bean seeds [2]; listed as high dose Ribose
  Root appearance: thick
Bean seeds [2]; [4]
  Root Length: 13.8 cm
  Root Weight: 1.46 gm
Bean seeds [2]; Week 2
  Root Length: 14.7 cm
Bean seeds [2]; [5]
  Root Weight: 0.26 gm
Bean seeds [2]; Week 2, plants cut off above the soil, just the roots weighed, listed as high dose Ribose
  Root Weight: less in weight than both the low dose Ribose and water groups

## O=C[C@H](O)[C@H](O)[C@H](O)CO [Low Ribose, D-ribose]
Bean seeds [2]; listed as low dose Ribose
  Root appearance: thicker, shorter roots
Bean seeds [2]; [4]
  Root Length: 13.4 cm
  Root Weight: 1.55 gm
Bean seeds [2]; Week 2
  Root Length: 16.0 cm
Bean seeds [2]; [5]
  Root Weight: 1.01 gm

## O=C[C@H](O)[C@H](O)[C@H](O)CO [R1, ribose]
[3]; 23 June, 5 seeds per plot
  Plant measures, Mean: 1.65 inches
[3]; 23 June
  Unsprouted: 2
[3]; Measured 8 July
  #Plants/blossom: 1
  Plant measures, Mean: 2.9 inches
Beans (B); 1-Nov, after transplant
  Bean measure to the Y: 17 cm and 12 cm
  Bean overall height: 33.5 cm and 18 cm
Beans (B); 9-Sep, before moving
  Bean measure to the Y: 9 cm and 10 cm and 6 cm
Beans (B); 19-Oct, after transplant
  Bean measure to the Y: 16 cm and 10 cm
Beans (B); 29-Sep, first measure after transplant
  Bean measure to the Y: 14 cm and 9.5 cm
Kohlrabi (K)
  Kohlrabi plant measure: 11 and 15.5 and 9.8 and 18

## O=C[C@H](O)[C@H](O)[C@H](O)CO [R2, ribose]
[3]; 23 June, 5 seeds per plot
  Plant measures, Mean: 3.3 inches
[3]; 23 June
  Unsprouted: 1
[3]; Measured 8 July
  #Plants/blossom: 3
  Plant measures, Mean: 5.8 inches

## O=C[C@H](O)[C@H](O)[C@H](O)CO [R3, ribose]
[3]; 23 June, 5 seeds per plot
  Plant measures, Mean: 6.05 inches
[3]; 23 June
  Unsprouted: 0
[3]; Measured 8 July
  #Plants/blossom: 4
  Plant measures, Mean: 9.3 inches
